Results published in publication PMC10584170, “Machine learning-based phenotypic imaging to characterise the targetable biology of Plasmodium falciparum male gametocytes for the development of transmission-blocking antimalarials” (PLOS Pathogens, 2023).

Columns and labels:
[1] = test system: P. falciparum female gametocytes; test: P. falciparum Dual Gamete Formation Assay (PfDGFA), female readout (Pfs25-positive female gametes); assay type: cell-based, Plasmodium falciparum NF54; details: for Average inhibition female (%): average of replicates; for % inhibition female (individual replicates) R1: replicate R1; for % inhibition female (individual replicates) R3: replicate R3; for % inhibition female (individual replicates) R4: replicate R4
How it was run: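 Mature NF54 gametocytes (day 14) were incubated with compound for 24 h at 37°C under 1% O2/3% CO2, then triggered with xanthurenic acid ookinete medium plus Cy3-anti-Pfs25. Exflagellation was imaged by brightfield; after a further 24 h at 28°C, Pfs25-positive female gametes were imaged by fluorescence and counted by automated image analysis.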

[2] = test system: P. falciparum male gametocytes; test: P. falciparum Dual Gamete Formation Assay (PfDGFA), male readout (exflagellation); assay type: cell-based, Plasmodium falciparum NF54; details: for Average inhibition male (%): average of replicates; for % inhibition male (individual replicates) R1: replicate R1; for % inhibition male (individual replicates) R3: replicate R3; for % inhibition male (individual replicates) R4: replicate R4; for Activity: hit = >50% inhibition in male or female readout in at least 3 replicates, 0 = no class assigned
Procedure: P. falciparum NF54 (originally isolated from an imported malaria case in the Netherlands in the 1980s; BEI Resources, cat. No. MRA-1000) strain asexual parasites were maintained between 0.3–5% parasitaemia by regular passage in complete culture medium (RPMI supplemented with 25 mM HEPES, 50 μg ml^−1 hypoxanthine, 4.8 g l^−1 NaHCO3, 2mM L-glutamine, 5% pooled type AB serum, 0.5% Albumax II (Gibco)) at 4% haematocrit in washed whole blood (National Blood and Transfusion Service or Centro de Transfusiones de la Comunidad de Madrid CTCM) under a 1% O2/3% CO2/96% N2 environment. Gametocytes were induced by seeding culture flasks at 2% parasitaemia/4% haematocrit and subjecting them to daily medium changes for 14 days whilst maintaining a temperature of 37°C at all times. On Day 14, the maturity of gametocytes was assessed by quantifying male gametogenesis (exflagellation). A 20 μl sample of gametocyte culture was mixed with equal volume of ookinete medium (complete culture medium supplemented with 0.1 μM xanthurenic acid) at room temperature and transferred to a haemocytometer. After 20 min at room temperature, exflagellation was accurately quantified as described in Delves et al. 2016 [17].
The Pf DGFA was performed as described in Delves et al. 2016 [17]. […] Plates were then incubated for 24 h at 37°C in a humidified box under a 1% O2/3% CO2/96% N2 gas mix. Gametogenesis was triggered by addition of 10 μl per well of ookinete medium + 0.27 μg ml^-1 Cy3-labelled anti-Pfs25 antibody. Plates were incubated on a metal block at 4°C for 4 min to ensure even cooling, then 28°C for a further 4 min. Exflagellation was recorded by capturing 10 frames over 1 s under brightfield illumination using a x4 objective with a 1.5x zoom (effectively x6) attached to an automated Nikon Ti fluorescence microscope. After recording exflagellation, plates were incubated for a further 24 h in the dark at 28°C to ensure maximal expression of Pfs25 by female gametes. The plates were then returned to the microscope and female gametes imaged at x6 using fluorescence microscopy.
Exflagellation centres and female gametes were quantified using custom image analysis pipelines developed within ICY Bioimage Analysis (https://icy.bioimageanalysis.org/).

[3] = 2µM, 24h preincubation with gametocytes prior to induction of gametogenesis
[4] = 2µM, 24h preincubation, hits selected on >50% inhibition in the female readout across replicates
[5] = 2µM, 24h preincubation, hits selected on >50% inhibition in the male readout across replicates
[6] = PfDGFA at 2µM, 24h preincubation
[7] = 2µM, 24h preincubation, number of replicates with >50% inhibition in the female readout
[8] = 2µM, 24h preincubation, number of replicates with >50% inhibition in the male readout
[9] = PfDGFA at 2µM, 24h preincubation with gametocytes prior to induction of gametogenesis
[10] = 2µM, 24h preincubation with gametocytes

Row | SMILES | Average inhibition female (%) [1, 3] [%] | % inhibition female (individual replicates) R1 [1, 3] [%] | % inhibition female (individual replicates) R3 [1, 3] [%] | % inhibition female (individual replicates) R4 [1, 3] [%] | Average inhibition male (%) [2, 3] [%] | % inhibition male (individual replicates) R1 [2, 3] [%] | % inhibition male (individual replicates) R3 [2, 3] [%] | % inhibition male (individual replicates) R4 [2, 3] [%] | % inhibition female (individual replicates) R1 [1, 9] [%] | % inhibition female (individual replicates) R3 [1, 9] [%] | % inhibition female (individual replicates) R4 [1, 9] [%] | Average inhibition female (%) [1, 6] [%] | % inhibition male (individual replicates) R1 [2, 9] [%] | % inhibition male (individual replicates) R3 [2, 9] [%] | % inhibition male (individual replicates) R4 [2, 9] [%] | Average inhibition male (%) [2, 6] [%] | also measured
1 | C[C@H](Cc1ccc(OCCNC[C@H](O)c2cccc(Cl)c2)cc1)NC[C@H](O)c1ccc(Cl)c(Cl)c1.O [TCMDC-131547] | 17.7 | 20.3 | 33.9 | 3.3 | 22.6 | 62.1 | 23.6 | 9.5 |  |  |  |  |  |  |  |  | HitlevelF [1, 4]: 0; HitlevelM [2, 5]: 1; Activity [2, 6]: 0
2 | C[C@H](Cc1ccc(S(=O)(=O)c2ccc(C[C@@H](C)NC[C@H](O)c3cccc(Cl)c3)cc2)cc1)NC[C@H](O)c1cccc(Cl)c1.Cl [TCMDC-131561] | 28.9 | 27.9 | 9.1 | 30.5 | 47.9 | 47.0 | 11.1 | 74.2 |  |  |  |  |  |  |  |  | HitlevelF [1, 7]: 0; HitlevelM [2, 8]: 2
3 | CC1(C)N=C(NC(=O)c2ccc([N+](=O)[O-])cc2)N=C(N)N1OCc1ccc2ccccc2c1 [TCMDC-131580] |  |  |  |  |  |  |  |  | 12.5 | -19.7 | 0.76 | 3.4 | 21.0 | -18.0 | -29.1 | -7.9 | 
4 | CC1(C)N=C(N)N=C(N)N1OCc1cc(Cl)c(CON2C(N)=NC(N)=NC2(C)C)cc1Cl [TCMDC-131624] |  |  |  |  |  |  |  |  | 0.3 | 11.6 | 5.2 | 2.9 | 2.1 |  | -25.6 | -4.5 | 
5 | Cc1ccc(CON2C(N)=NC(N)=NC2(C)C)c(Cl)c1.Cc1ccc(CON2C(N)=NC(N)=NC2(C)C)cc1Cl [TCMDC-131625] |  |  |  |  |  |  |  |  | -4.8 | -23.0 | 21.6 | -0.55 | 26.3 | -30.0 | -18.5 | -5.6 | 
6 | CC(=O)c1ccc(NC(=O)NNC(=O)c2ccc(CCN3CCC(c4nc(COCC(F)(F)F)c(-c5ccc(F)cc5)o4)CC3)cc2)cc1 [TCMDC-131905] |  |  |  |  |  |  |  |  | 5.8 | -31.0 | 36.9 | 3.6 | 1.3 | 7.6 | 18.2 | 9.5 | 
7 | COc1cc2ncnc(Nc3ccc(OCc4ccccc4)c(OCc4ccccc4)c3)c2cc1OC.Cl [TCMDC-131922] | 10.3 | 5.3 | 31.5 | 4.3 | 5.7 | 10.5 | 8.7 | 6.9 |  |  |  |  |  |  |  |  | HitlevelF [1, 4]: 0; HitlevelM [2, 5]: 0; Activity [2, 6]: 0
8 | Nc1nc(N)c2c(ccc3c2cnn3Cc2cccnc2)n1 [TCMDC-131932] | 18.1 | 3.3 | 58.3 | 1.8 | 12.5 | 4.3 | 31.7 | 1.1 |  |  |  |  |  |  |  |  | HitlevelF [1, 7]: 1; HitlevelM [2, 8]: 0
9 | COc1ccc2nc(Nc3nc4cnccc4[nH]3)sc2c1 [TCMDC-131950] | 7.4 | 12.1 | -4.5 | 3.8 | -15.4 | -6.4 | -26.4 | -8.5 |  |  |  |  |  |  |  |  | HitlevelF [1, 4]: 0; HitlevelM [2, 5]: 0; Activity [2, 6]: 0
10 | O=[N+]([O-])c1ccc(C=NO)nc1 [TCMDC-131967] |  |  |  |  |  |  |  |  |  |  |  |  |  |  |  |  | Average inhibition female (%) [1, 10]: 41.1%; % inhibition female (individual replicates) R1 [1, 10]: 34.5%; % inhibition female (individual replicates) R3 [1, 10]: 28.1%; % inhibition female (individual replicates) R4 [1, 10]: 43.8%; Average inhibition male (%) [2, 10]: 97.7%; % inhibition male (individual replicates) R1 [2, 10]: 97.9%; % inhibition male (individual replicates) R3 [2, 10]: 95.1%; % inhibition male (individual replicates) R4 [2, 10]: 101.6%
11 | CS(=O)(=O)c1ccc(-n2nc(C(F)(F)F)cc2-c2ccc(C=NOCC(=O)O)o2)cc1 [TCMDC-132015] |  |  |  |  |  |  |  |  | 5.4 | -21.4 | 0.25 | -6.9 | 7.6 | -4.4 | -18.5 | -6.3 | 
12 | CCc1c(CCNCCCCCCNCCc2ccc(Br)cc2)ccc(OC)c1OC.Cl [TCMDC-132045] |  |  |  |  |  |  |  |  | -8.2 | -48.0 | -18.3 | -21.6 | -2.0 | 7.0 | 22.9 | 10.8 | 
